Test results as given in US5221677A, “5-lipoxygenase inhibitors quinoline or isoquinoline derivatives” (Imperial Chemical Industries PLC, priority 1989, dated 1993).

Experiments:
5-LO [1] = assay: In vitro heparinised human blood assay, A23187 challenge, LTB4 radioimmunoassay (test b); type: cell-based
Description: b) An in vitro assay system involving incubating a test compound with heparinised human blood, prior to challenge with the calcium ionophore A23187 and then indirectly measuring the inhibitory effects on 5-LO by assaying the amount of LTB4 using the specific radioimmunoassay described by Carey and Forder (F. Carey and R. A. Forder, Brit. J. Pharmacol. 1985, 84, 34P) which involves the use of a protein-LTB4 conjugate produced using the procedure of Young et alia (Prostaglandins, 1983, 26(4), 605-613). The effects of a test compound on the enzyme cyclooxygenase (which is involved in the alternative metabolic pathway for arachidonic acid and gives rise to prostaglandins, thromboxanes and related metabolites) may be measured at the same time using the specific radioimmunoassay for thromboxane B2 (TxB2) described by Carey and Forder (see above). This test provides an indication of the effects of a test compound against 5-LO and also cyclooxygenase in the presence of blood cells and proteins. It permits the selectivity of the inhibitory effect on 5-LO or cyclooxygenase to be assessed.

5-LO [2] = assay: Ex vivo assay: administration of test compound, blood collection, A23187 challenge, LTB4 radioimmunoassay (test c); type: in vivo; conditions: oral
5-LO [3] = assay: Liberation of LTB4 induced by zymosan within an air pouch in male rats (test g); type: in vivo; conditions: 3 h, oral, rat air pouch
Description: g) An in vivo system involving measuring the effects of a test compound administered orally against the liberation of LTB4 induced by zymosan within an air pouch generated within the subcutaneous tissue of the back of male rats. The rats are anaesthetised and air pouches are formed by the injection of sterile air (20 ml). A further injection of air (10 ml) is similarly given after 3 days). At 6 days after the initial air injection the test compound is administered (usually orally as the supsension produced when a solution of the test compound in dimethylsulphoxide is added to hydroxypropylmethylcellulose), followed by the intrapouch injection of zymosan (1 ml of a 1% suspension in physiological saline). After 3 hours the rats are killed, the air pouches are lavaged with physiological saline, and the specific radioimmunoassay described above is used to assay LTB4 in washings. This test provides an indication of inhibitory effects against 5-LO in an inflammatory milieu.

- IC50 (5-LO [1]): < 40 nM
SMILES: COC1(c2cccc(Sc3ccc4c(ccc(=O)n4C)c3)c2)CCOCC1 [Example 1, 4-[3-(1,2-dihydro-1-methyl-2-oxoquinolin-6-ylthio)phenyl]-4-methoxytetrahydropyran]
- ED50 (5-LO [2]): 1.5 mg/kg
- ED50 (5-LO [3]): 1 mg/kg
